Experimental data published in article PMC12028158, “Synthesis and In Vitro Evaluation of the Anticancer Effect of Novel Phosphonium Vindoline Derivatives” (International Journal of Molecular Sciences, 2025).
Where two headings read alike, the source gives them in different places.

Columns and labels:
Format in all cases: cell-based
Ovarian Cancer panel = experiment: NCI60 five-dose screen, panel mean; conditions: Homo sapiens
LOX IMVI = experiment: NCI60 five-dose screen; conditions: Homo sapiens
UACC-257 [1] = experiment: NCI60 one-dose screen; conditions: Homo sapiens, UACC-257, read-out: Growth percent
UACC-257 [2] = experiment: NCI60 five-dose screen; conditions: Homo sapiens, UACC-257
COLO 205 [3] = experiment: NCI60 one-dose screen; conditions: Homo sapiens, COLO 205, read-out: Growth percent
KM12 = experiment: NCI60 five-dose screen; conditions: Homo sapiens, KM12
TK-10 [4] = experiment: NCI60 one-dose screen; conditions: Homo sapiens, TK-10, read-out: Growth percent
RPMI-8226 = experiment: NCI60 one-dose screen; conditions: Homo sapiens, RPMI-8226, read-out: Growth percent
NCI-H460 = experiment: NCI60 five-dose screen; conditions: Homo sapiens, NCI-H460
T-47D [5] = experiment: NCI60 five-dose screen; conditions: Homo sapiens, T47D
HT29 = experiment: NCI60 one-dose screen; conditions: Homo sapiens, HT-29, read-out: Growth percent
ACHN [6] = experiment: NCI60 five-dose screen; conditions: Homo sapiens
Colon Cancer panel = experiment: NCI60 five-dose screen, panel mean; conditions: Homo sapiens
MDA-MB-468 [7] = experiment: NCI60 five-dose screen; conditions: Homo sapiens, MDA-MB-468
SK-MEL-28 = experiment: NCI60 one-dose screen; conditions: Homo sapiens, SK-MEL-28, read-out: Growth percent
Renal Cancer panel = experiment: NCI60 five-dose screen, panel mean; conditions: Homo sapiens
UO-31 = experiment: NCI60 one-dose screen; conditions: Homo sapiens, UO-31, read-out: Growth percent
OVCAR-5 [8] = experiment: NCI60 five-dose screen; conditions: Homo sapiens, OVCAR-5
COLO 205 [9] = experiment: NCI60 five-dose screen; conditions: Homo sapiens, COLO 205
HS 578T = experiment: NCI60 one-dose screen; conditions: Homo sapiens, Hs-578T, read-out: Growth percent
U251 [10] = experiment: NCI60 five-dose screen; conditions: Homo sapiens, U-251
SF-295 = experiment: NCI60 one-dose screen; conditions: Homo sapiens, SF-295, read-out: Growth percent
SNB-75 = experiment: NCI60 one-dose screen; conditions: Homo sapiens, SNB-75, read-out: Growth percent
SW-620 = experiment: NCI60 five-dose screen; conditions: Homo sapiens, SW-620
MOLT-4 = experiment: NCI60 five-dose screen; conditions: Homo sapiens, MOLT-4
NCI-H226 = experiment: NCI60 one-dose screen; conditions: Homo sapiens, NCI-H226, read-out: Growth percent
T-47D [11] = experiment: NCI60 one-dose screen; conditions: Homo sapiens, T47D, read-out: Growth percent
HOP-62 [12] = experiment: NCI60 five-dose screen; conditions: Homo sapiens, HOP-62
CCRF-CEM = experiment: NCI60 five-dose screen; conditions: Homo sapiens
A549/ATCC = experiment: NCI60 five-dose screen; conditions: Homo sapiens, A549
U251 [13] = experiment: NCI60 one-dose screen; conditions: Homo sapiens, U-251, read-out: Growth percent
NCI-H322M = experiment: NCI60 five-dose screen; conditions: Homo sapiens
SF-268 = experiment: NCI60 one-dose screen; conditions: Homo sapiens, SF-268, read-out: Growth percent
MDA-MB-468 [14] = experiment: NCI60 one-dose screen; conditions: Homo sapiens, MDA-MB-468, read-out: Growth percent
TK-10 [15] = experiment: NCI60 five-dose screen; conditions: Homo sapiens, TK-10
NCI-H522 = experiment: NCI60 one-dose screen; conditions: Homo sapiens, NCI-H522, read-out: Growth percent
HOP-62 [16] = experiment: NCI60 one-dose screen; conditions: Homo sapiens, HOP-62, read-out: Growth percent
HCT-116 = experiment: NCI60 one-dose screen; conditions: Homo sapiens, HCT-116, read-out: Growth percent
M14 = experiment: NCI60 one-dose screen; conditions: Homo sapiens, M14, read-out: Growth percent
OVCAR-5 [17] = experiment: NCI60 one-dose screen; conditions: Homo sapiens, OVCAR-5, read-out: Growth percent
ACHN [18] = experiment: NCI60 one-dose screen; conditions: Homo sapiens, read-out: Growth percent
SNB-19 = experiment: NCI60 five-dose screen; conditions: Homo sapiens, SNB-19
[19] = test system: Non-small Cell Lung Cancer panel; experiment: NCI60 five-dose screen, panel mean; conditions: Homo sapiens
DU-145 = experiment: NCI60 one-dose screen; conditions: Homo sapiens, DU-145, read-out: Growth percent
CAKI-1 = experiment: NCI60 one-dose screen; conditions: Homo sapiens, CAKI-1, read-out: Growth percent
MCF7 = experiment: NCI60 five-dose screen; conditions: Homo sapiens, MCF7

SMILES: CC[C@]12C=CCN3CC[C@@]4(c5ccc(OC)cc5N(C)[C@H]4[C@@](O)(C(=O)OC)[C@@H]1OC(=O)CCC[P+](c1ccc(F)cc1)(c1ccc(F)cc1)c1ccc(F)cc1)[C@@H]32 [9c]
- GI50 (Ovarian Cancer panel; read-out: Mean GI50): 19 µM
- GI50 (LOX IMVI): 16.6 µM
- activity at 10 µM (UACC-257 [1]): -34.3%
- GI50 (UACC-257 [2]): 4670 nM
- activity at 10 µM (COLO 205 [3]): -18.9%
- GI50 (KM12): 8.96 µM
- activity at 10 µM (TK-10 [4]): 63.9%
- activity at 10 µM (RPMI-8226): 24.4%
- GI50 (NCI-H460): 17 µM
- GI50 (T-47D [5]): 10.5 µM
- activity at 10 µM (HT29): 15.7%
- GI50 (ACHN [6]): > 48500 nM
- GI50 (Colon Cancer panel; read-out: Mean GI50): 16.8 µM
- GI50 (MDA-MB-468 [7]): 1500 nM
- activity at 10 µM (SK-MEL-28): -24.1%
- GI50 (Renal Cancer panel; read-out: Mean GI50): 34.2 µM
- activity at 10 µM (UO-31): 81.5%
- GI50 (OVCAR-5 [8]): 20.8 µM
- GI50 (COLO 205 [9]): 4980 nM
- activity at 10 µM (HS 578T): 19.1%
- GI50 (U251 [10]): 9.36 µM
- activity at 10 µM (SF-295): 85%
- activity at 10 µM (SNB-75): 39.9%
- GI50 (SW-620): 18.3 µM
- GI50 (MOLT-4): 9.69 µM
- activity at 10 µM (NCI-H226): 46.9%
- activity at 10 µM (T-47D [11]): 10.4%
- GI50 (HOP-62 [12]): 20.5 µM
- GI50 (CCRF-CEM): 12.7 µM
- GI50 (A549/ATCC): 21.5 µM
- activity at 10 µM (U251 [13]): 18.5%
- GI50 (NCI-H322M): > 48500 nM
- activity at 10 µM (SF-268): 42.3%
- activity at 10 µM (MDA-MB-468 [14]): -74.6%
- GI50 (TK-10 [15]): 22.2 µM
- activity at 10 µM (NCI-H522): -17.7%
- activity at 10 µM (HOP-62 [16]): 64%
- activity at 10 µM (HCT-116): 32.2%
- activity at 10 µM (M14): 21.4%
- activity at 10 µM (OVCAR-5 [17]): 67%
- activity at 10 µM (ACHN [18]): 101%
- GI50 (SNB-19): 11.4 µM
- GI50 ([19]; read-out: Mean GI50): 19.6 µM
- activity at 10 µM (DU-145): 47.7%
- activity at 10 µM (CAKI-1): 73.1%
- GI50 (MCF7): 8.26 µM

SMILES: CC[C@]12C=CCN3CC[C@@]4(c5ccc(OC)cc5N(C)[C@H]4[C@@](O)(C(=O)OC)[C@@H]1OC(=O)CCCC[P+](c1ccc(C)cc1)(c1ccc(C)cc1)c1ccc(C)cc1)[C@@H]32 [10a]
- GI50 (Ovarian Cancer panel; read-out: GI50 Mean): 2.54 µM
- GI50 (LOX IMVI): 0.797 µM
- activity at 10 µM (UACC-257 [1]): -95%
- GI50 (UACC-257 [2]): 817 nM
- activity at 10 µM (COLO 205 [3]): -64.1%
- GI50 (KM12): 0.596 µM
- activity at 10 µM (TK-10 [4]): -91.2%
- activity at 10 µM (RPMI-8226): -46%
- GI50 (NCI-H460): 0.6 µM
- GI50 (T-47D [5]): 0.37 µM
- activity at 10 µM (HT29): -81.8%
- GI50 (ACHN [6]): 2540 nM
- GI50 (Colon Cancer panel; read-out: GI50 Mean): 0.72 µM
- GI50 (MDA-MB-468 [7]): 264 nM
- activity at 10 µM (SK-MEL-28): -97.8%
- GI50 (Renal Cancer panel; read-out: GI50 Mean): 2.34 µM
- activity at 10 µM (UO-31): -96%
- GI50 (OVCAR-5 [8]): 1.44 µM
- GI50 (COLO 205 [9]): 200 nM
- activity at 10 µM (HS 578T): -69.9%
- GI50 (U251 [10]): 0.47 µM
- activity at 10 µM (SF-295): -91.8%
- activity at 10 µM (SNB-75): -87.6%
- GI50 (SW-620): 0.761 µM
- GI50 (MOLT-4): 0.611 µM
- activity at 10 µM (NCI-H226): -78.6%
- activity at 10 µM (T-47D [11]): -64.5%
- GI50 (HOP-62 [12]): 1.37 µM
- GI50 (CCRF-CEM): 0.768 µM
- GI50 (A549/ATCC): 0.819 µM
- activity at 10 µM (U251 [13]): -93.6%
- GI50 (NCI-H322M): 2670 nM
- activity at 10 µM (SF-268): -61.1%
- activity at 10 µM (MDA-MB-468 [14]): -92.5%
- GI50 (TK-10 [15]): 1.49 µM
- activity at 10 µM (NCI-H522): -82.7%
- activity at 10 µM (HOP-62 [16]): -84%
- activity at 10 µM (HCT-116): -93.5%
- activity at 10 µM (M14): -88.3%
- activity at 10 µM (OVCAR-5 [17]): -96%
- activity at 10 µM (ACHN [18]): -99.3%
- GI50 (SNB-19): 0.96 µM
- GI50 ([19]; read-out: GI50 Mean): 1.07 µM
- activity at 10 µM (DU-145): -84.5%
- activity at 10 µM (CAKI-1): -95.2%
- GI50 (MCF7): 0.325 µM
